# Measured values: PubChem BioAssay (NCI)
#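 Values below derive from 48-hour exposures of cells grown in 96-well plates, with endpoints linearly interpolated between the two concentrations bracketing the appropriate inhibition level. Definition used: TGI = concentration required for complete inhibition of growth.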
# Tests used:
# Test in all cases: NCI anticancer screen, dose series, 48 h
# 786-0 renal = system: 786-0 renal
# A498 renal = system: A498 renal
# A549 NSCLC = system: A549 NSCLC
# ACHN renal = system: ACHN renal
# CAKI-1 renal = system: CAKI-1 renal
# CCRF-CEM leukemia = system: CCRF-CEM leukemia
# COLO 205 colon = system: COLO 205 colon
# DMS 114 small cell lung = system: DMS 114 small cell lung
# DMS 273 small cell lung = system: DMS 273 small cell lung
# EKVX NSCLC = system: EKVX NSCLC
# HCC-2998 colon = system: HCC-2998 colon
# HCT-116 colon = system: HCT-116 colon
# HCT-15 colon = system: HCT-15 colon
# HL-60(TB) leukemia = system: HL-60(TB) leukemia
# HOP-18 NSCLC = system: HOP-18 NSCLC
# HOP-62 NSCLC = system: HOP-62 NSCLC
# HOP-92 NSCLC = system: HOP-92 NSCLC
# HT29 colon = system: HT29 colon
# IGROV1 ovarian = system: IGROV1 ovarian
# K-562 leukemia = system: K-562 leukemia
# KM20L2 colon = system: KM20L2 colon
# LOX IMVI melanoma = system: LOX IMVI melanoma
# LXFL 529 NSCLC = system: LXFL 529 NSCLC
# M14 melanoma = system: M14 melanoma
# M19-MEL melanoma = system: M19-MEL melanoma
# MALME-3M melanoma = system: MALME-3M melanoma
# MOLT-4 leukemia = system: MOLT-4 leukemia
# NCI-H23 lung = system: NCI-H23 lung
# NCI-H460 lung = system: NCI-H460 lung
# NCI-H522 lung = system: NCI-H522 lung
# OVCAR-4 ovarian = system: OVCAR-4 ovarian
# OVCAR-5 ovarian = system: OVCAR-5 ovarian
# OVCAR-8 ovarian = system: OVCAR-8 ovarian
# RPMI-8226 leukemia = system: RPMI-8226 leukemia
# RXF 393 renal = system: RXF 393 renal
# SF-268 CNS = system: SF-268 CNS
# SK-MEL-2 melanoma = system: SK-MEL-2 melanoma
# SK-MEL-28 melanoma = system: SK-MEL-28 melanoma
# SK-MEL-5 melanoma = system: SK-MEL-5 melanoma
# SK-OV-3 ovarian = system: SK-OV-3 ovarian
# SN12C renal = system: SN12C renal
# SNB-19 CNS = system: SNB-19 CNS
# SNB-75 CNS = system: SNB-75 CNS
# SR leukemia = system: SR leukemia
# SW-620 colon = system: SW-620 colon
# TK-10 renal = system: TK-10 renal
# U251 CNS = system: U251 CNS
# UACC-257 melanoma = system: UACC-257 melanoma
# UACC-62 melanoma = system: UACC-62 melanoma
# UO-31 renal = system: UO-31 renal
# XF 498 CNS = system: XF 498 CNS
# DLD-1 colon = system: DLD-1 colon
# KM12 colon = system: KM12 colon
# NCI-H226 lung = system: NCI-H226 lung
# OVCAR-3 ovarian = system: OVCAR-3 ovarian
# SF-295 CNS = system: SF-295 CNS
# SF-539 CNS = system: SF-539 CNS
# SNB-78 CNS = system: SNB-78 CNS
structure (smiles),measurement,setting,value
COC(=O)CC1C(=O)OCc2c1cc1n(c2=O)Cc2c-1nc1ccccc1c2OC (centres undefined),TGI,786-0 renal,> 100 µM
same,TGI,A498 renal,> 100 µM
same,TGI,A549 NSCLC,> 100 µM
same,TGI,ACHN renal,> 100 µM
same,TGI,CAKI-1 renal,34.4 µM
same,TGI,CCRF-CEM leukemia,> 100 µM
same,TGI,COLO 205 colon,> 100 µM
same,TGI,DMS 114 small cell lung,> 100 µM
same,TGI,DMS 273 small cell lung,> 100 µM
same,TGI,EKVX NSCLC,> 100 µM
same,TGI,HCC-2998 colon,> 100 µM
same,TGI,HCT-116 colon,> 100 µM
same,TGI,HCT-15 colon,> 100 µM
same,TGI,HL-60(TB) leukemia,> 100 µM
same,TGI,HOP-18 NSCLC,> 100 µM
same,TGI,HOP-62 NSCLC,> 100 µM
same,TGI,HOP-92 NSCLC,> 100 µM
same,TGI,HT29 colon,> 100 µM
same,TGI,IGROV1 ovarian,> 100 µM
same,TGI,K-562 leukemia,> 100 µM
same,TGI,KM20L2 colon,> 100 µM
same,TGI,LOX IMVI melanoma,> 100 µM
same,TGI,LXFL 529 NSCLC,> 100 µM
same,TGI,M14 melanoma,> 100 µM
same,TGI,M19-MEL melanoma,> 100 µM
same,TGI,MALME-3M melanoma,> 100 µM
same,TGI,MOLT-4 leukemia,32.3 µM
same,TGI,NCI-H23 lung,97.9 µM
same,TGI,NCI-H460 lung,> 100 µM
same,TGI,NCI-H522 lung,> 100 µM
same,TGI,OVCAR-4 ovarian,> 100 µM
same,TGI,OVCAR-5 ovarian,> 100 µM
same,TGI,OVCAR-8 ovarian,> 100 µM
same,TGI,RPMI-8226 leukemia,> 100 µM
same,TGI,RXF 393 renal,70.2 µM
same,TGI,SF-268 CNS,> 100 µM
same,TGI,SK-MEL-2 melanoma,> 100 µM
same,TGI,SK-MEL-28 melanoma,> 100 µM
same,TGI,SK-MEL-5 melanoma,> 100 µM
same,TGI,SK-OV-3 ovarian,> 100 µM
same,TGI,SN12C renal,> 100 µM
same,TGI,SNB-19 CNS,> 100 µM
same,TGI,SNB-75 CNS,> 100 µM
same,TGI,SR leukemia,40.8 µM
same,TGI,SW-620 colon,> 100 µM
same,TGI,TK-10 renal,> 100 µM
same,TGI,U251 CNS,> 100 µM
same,TGI,UACC-257 melanoma,> 100 µM
same,TGI,UACC-62 melanoma,> 100 µM
same,TGI,UO-31 renal,> 100 µM
same,TGI,XF 498 CNS,> 100 µM
O=c1cc2ccccc2nn1-c1ccccc1Cl,TGI,786-0 renal,> 100 µM
same,TGI,A498 renal,> 100 µM
same,TGI,A549 NSCLC,> 100 µM
same,TGI,ACHN renal,> 100 µM
same,TGI,CAKI-1 renal,> 100 µM
same,TGI,CCRF-CEM leukemia,> 100 µM
same,TGI,COLO 205 colon,> 100 µM
same,TGI,DLD-1 colon,> 100 µM
same,TGI,DMS 114 small cell lung,> 100 µM
same,TGI,DMS 273 small cell lung,> 100 µM
same,TGI,EKVX NSCLC,> 100 µM
same,TGI,HCC-2998 colon,> 100 µM
same,TGI,HCT-116 colon,> 100 µM
same,TGI,HCT-15 colon,> 100 µM
same,TGI,HOP-18 NSCLC,> 100 µM
same,TGI,HOP-62 NSCLC,> 100 µM
same,TGI,HOP-92 NSCLC,> 100 µM
same,TGI,HT29 colon,> 100 µM
same,TGI,IGROV1 ovarian,> 100 µM
same,TGI,K-562 leukemia,> 100 µM
same,TGI,KM12 colon,> 100 µM
same,TGI,KM20L2 colon,> 100 µM
same,TGI,LOX IMVI melanoma,> 100 µM
same,TGI,M14 melanoma,> 100 µM
same,TGI,M19-MEL melanoma,> 100 µM
same,TGI,MALME-3M melanoma,> 100 µM
same,TGI,NCI-H226 lung,> 100 µM
same,TGI,NCI-H23 lung,> 100 µM
same,TGI,NCI-H460 lung,> 100 µM
same,TGI,OVCAR-3 ovarian,> 100 µM
same,TGI,OVCAR-4 ovarian,> 100 µM
same,TGI,OVCAR-5 ovarian,> 100 µM
same,TGI,OVCAR-8 ovarian,> 100 µM
same,TGI,RPMI-8226 leukemia,> 100 µM
same,TGI,SF-268 CNS,> 100 µM
same,TGI,SF-295 CNS,> 100 µM
same,TGI,SF-539 CNS,> 100 µM
same,TGI,SK-MEL-2 melanoma,> 100 µM
same,TGI,SK-MEL-28 melanoma,> 100 µM
same,TGI,SK-MEL-5 melanoma,> 100 µM
same,TGI,SK-OV-3 ovarian,> 100 µM
same,TGI,SN12C renal,> 100 µM
same,TGI,SNB-19 CNS,> 100 µM
same,TGI,SNB-75 CNS,> 100 µM
same,TGI,SNB-78 CNS,> 100 µM
same,TGI,SW-620 colon,> 100 µM
same,TGI,TK-10 renal,> 100 µM
same,TGI,U251 CNS,> 100 µM
same,TGI,UACC-257 melanoma,> 100 µM
same,TGI,UACC-62 melanoma,> 100 µM
same,TGI,UO-31 renal,96.6 µM
same,TGI,XF 498 CNS,77.5 µM
C=C1CC[C@@H]2C(C)(C)CCC[C@@]2(C)[C@@H]1Cc1cc(O)ccc1O,TGI,786-0 renal,12 µM
same,TGI,A498 renal,27.6 µM
same,TGI,A549 NSCLC,23 µM
same,TGI,ACHN renal,11.8 µM
same,TGI,CAKI-1 renal,22.2 µM
same,TGI,CCRF-CEM leukemia,5.23 µM
same,TGI,COLO 205 colon,31.4 µM
same,TGI,DLD-1 colon,18.1 µM
same,TGI,DMS 114 small cell lung,4.1 µM
same,TGI,DMS 273 small cell lung,19.4 µM
same,TGI,EKVX NSCLC,29 µM
same,TGI,HCC-2998 colon,28 µM
same,TGI,HCT-116 colon,16.8 µM
same,TGI,HCT-15 colon,12.3 µM
same,TGI,HL-60(TB) leukemia,4.67 µM
same,TGI,HOP-18 NSCLC,30 µM
same,TGI,HOP-62 NSCLC,25.8 µM
same,TGI,HOP-92 NSCLC,10.6 µM
same,TGI,HT29 colon,32.6 µM
same,TGI,IGROV1 ovarian,5.65 µM
same,TGI,K-562 leukemia,16.7 µM
same,TGI,KM12 colon,19.2 µM
same,TGI,KM20L2 colon,32.8 µM
same,TGI,LOX IMVI melanoma,5.35 µM
same,TGI,LXFL 529 NSCLC,6.68 µM
same,TGI,M14 melanoma,24.3 µM
same,TGI,M19-MEL melanoma,11 µM
same,TGI,MALME-3M melanoma,17.4 µM
same,TGI,MOLT-4 leukemia,9.07 µM
same,TGI,NCI-H226 lung,7.09 µM
same,TGI,NCI-H23 lung,18.7 µM
same,TGI,NCI-H460 lung,33.4 µM
same,TGI,NCI-H522 lung,3.66 µM
same,TGI,OVCAR-3 ovarian,18.5 µM
same,TGI,OVCAR-4 ovarian,3.72 µM
same,TGI,OVCAR-5 ovarian,31.3 µM
same,TGI,OVCAR-8 ovarian,15.1 µM
same,TGI,RPMI-8226 leukemia,15.9 µM
same,TGI,RXF 393 renal,5.18 µM
same,TGI,SF-268 CNS,12.9 µM
same,TGI,SF-295 CNS,28.2 µM
same,TGI,SF-539 CNS,3.9 µM
same,TGI,SK-MEL-2 melanoma,6.39 µM
same,TGI,SK-MEL-28 melanoma,9.83 µM
same,TGI,SK-MEL-5 melanoma,19.7 µM
same,TGI,SK-OV-3 ovarian,6.04 µM
same,TGI,SN12C renal,15.6 µM
same,TGI,SNB-19 CNS,21.9 µM
same,TGI,SNB-75 CNS,7.14 µM
same,TGI,SNB-78 CNS,5.25 µM
same,TGI,SR leukemia,12.1 µM
same,TGI,SW-620 colon,23.8 µM
same,TGI,TK-10 renal,8.77 µM
same,TGI,U251 CNS,14.5 µM
same,TGI,UACC-257 melanoma,5.78 µM
same,TGI,UACC-62 melanoma,22.8 µM
same,TGI,UO-31 renal,5.25 µM
COC(=O)N/N=C/c1oc(-c2cccc([N+](=O)[O-])c2)c(-c2cccc([N+](=O)[O-])c2)c1[N+](=O)[O-],TGI,786-0 renal,> 100 µM
same,TGI,A549 NSCLC,> 100 µM
same,TGI,ACHN renal,> 100 µM
same,TGI,CCRF-CEM leukemia,78.3 µM
same,TGI,COLO 205 colon,> 100 µM
same,TGI,DLD-1 colon,> 100 µM
same,TGI,DMS 273 small cell lung,> 100 µM
same,TGI,EKVX NSCLC,> 100 µM
same,TGI,HCC-2998 colon,> 100 µM
same,TGI,HCT-116 colon,> 100 µM
same,TGI,HCT-15 colon,> 100 µM
same,TGI,HL-60(TB) leukemia,55.4 µM
same,TGI,HOP-18 NSCLC,> 100 µM
same,TGI,HOP-62 NSCLC,> 100 µM
same,TGI,HOP-92 NSCLC,> 100 µM
same,TGI,HT29 colon,> 100 µM
same,TGI,IGROV1 ovarian,> 100 µM
same,TGI,K-562 leukemia,> 100 µM
same,TGI,KM12 colon,> 100 µM
same,TGI,KM20L2 colon,> 100 µM
same,TGI,LOX IMVI melanoma,> 100 µM
same,TGI,LXFL 529 NSCLC,> 100 µM
same,TGI,M14 melanoma,> 100 µM
same,TGI,M19-MEL melanoma,> 100 µM
same,TGI,MOLT-4 leukemia,89.9 µM
same,TGI,NCI-H23 lung,> 100 µM
same,TGI,NCI-H460 lung,> 100 µM
same,TGI,NCI-H522 lung,> 100 µM
same,TGI,OVCAR-3 ovarian,> 100 µM
same,TGI,OVCAR-4 ovarian,> 100 µM
same,TGI,OVCAR-5 ovarian,> 100 µM
same,TGI,OVCAR-8 ovarian,> 100 µM
same,TGI,RPMI-8226 leukemia,> 100 µM
same,TGI,RXF 393 renal,> 100 µM
same,TGI,SF-268 CNS,> 100 µM
same,TGI,SF-295 CNS,> 100 µM
same,TGI,SK-MEL-28 melanoma,> 100 µM
same,TGI,SK-MEL-5 melanoma,> 100 µM
same,TGI,SK-OV-3 ovarian,> 100 µM
same,TGI,SN12C renal,> 100 µM
same,TGI,SNB-19 CNS,> 100 µM
same,TGI,SR leukemia,> 100 µM
same,TGI,SW-620 colon,> 100 µM
same,TGI,TK-10 renal,> 100 µM
same,TGI,U251 CNS,> 100 µM
same,TGI,UACC-257 melanoma,> 100 µM
same,TGI,UACC-62 melanoma,> 100 µM
same,TGI,UO-31 renal,> 100 µM
same,TGI,XF 498 CNS,> 100 µM
